Experimental data as given in patent US9175305B2, “Mutant hydroxyphenylpyruvate dioxygenase polypeptides and methods of use” (Syngenta Participations AG, priority 2009, dated 2015).
Values joined by “and” are separate entries in the source; they are usually repeats but may differ in a detail not shown here. Equal entries are not always repeated. Where two headings read alike, the source gives them in different places.

Tests used:
[1] = system: Jack w/t; test: herbicide spray test on soybean; assay type: in vivo; settings: V2 growth stage, 14 DAT, average of n=7
Protocol: (§1) Each data point represents the average damage score from n=7 replicates.
(§2) Plants were in 4×4×4 inch plastic pots and grown under a 15/9 hour light regime (daylight supplemented by artificial light in greenhouses) at a minimum night-time temperature of 18° C. and maximum daytime temperature of 27° C. Soil was regular VBRC mix (1:1 mixture of Vero field soil and Fafard Mix II) where Vero field soil is 98% sand and 2% clay. […] Spray volume was 150 L/ha and the damage scores reflect assessments at 14 DAT.

[2] = target: HPPD SEQ ID NO:24 (Avena sativa, UniProt A0ACD5V6K6, DEL109-109/L359M); test: biochemical; assay type: binding; settings: for koff: read-out: koff (k1); for kon: read-out: kon (k2)
Chain of HPPD SEQ ID NO:24 (A0ACD5V6K6 entry or part of it DEL109-109/L359M): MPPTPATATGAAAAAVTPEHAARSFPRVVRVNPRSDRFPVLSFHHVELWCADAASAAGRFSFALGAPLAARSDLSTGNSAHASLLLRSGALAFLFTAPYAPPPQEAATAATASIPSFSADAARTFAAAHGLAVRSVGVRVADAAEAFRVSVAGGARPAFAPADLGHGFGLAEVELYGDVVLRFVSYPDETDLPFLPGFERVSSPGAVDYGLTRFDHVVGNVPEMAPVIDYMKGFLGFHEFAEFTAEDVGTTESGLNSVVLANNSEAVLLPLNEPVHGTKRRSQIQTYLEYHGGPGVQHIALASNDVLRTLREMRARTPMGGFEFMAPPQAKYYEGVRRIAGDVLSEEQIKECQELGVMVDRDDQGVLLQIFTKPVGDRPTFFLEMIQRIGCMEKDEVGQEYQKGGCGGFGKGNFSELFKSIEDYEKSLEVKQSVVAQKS
Protocol: (§3) On rates (governed by an association rate constant, kon) for the formation of the enzyme: inhibitor complexes, EI and off rates (governed by a dissociation rate constant, koff) were determined by methods known in the art and essentially as described in Hawkes et al. (2001) Proc. Bright. Crop. Prot. Conf. Weeds, 2:563-568 and in PCT Patent App. Pub. No. WO 02/46387).
(§4) For example, on rates were measured by, at zero time, adding ˜60 pmoles HPPD to 50 mM BisTrisPropane buffer at pH7.0 and at 25° C. containing 25 mM Na ascorbate, 4 μg/ml bovine catalase (Sigma, St. Louis, Mo.) and an excess (˜300 pmoles) of ^14C inhibitor in a total assay volume of 425 μl and, at various time points (0-180 s), quenching the radiolabel binding reaction by addition and rapid mixing of 100 μl ‘cold’ 1 mM structure A. Protein samples quenched at different times were then exchanged into 50 mM BisTrisPropane buffer at pH 7.0 containing 0.1M KCl by rapid chromatography down a NAP5 G25 Sephadex column (GE Healthcare Ltd, Buckinghamshire UK) and the amount of ^14C bound to protein fractions quantified in Optiphase scintillant using a Tri-Carb 2900TR scintillation counter (Perkin Elmer, Wellesley, Mass.). The data were fit according to the scheme below in order to derive the value of the apparent second order rate constant, k2, governing the association rate of enzyme and radiolabelled inhibitor. A range of enzyme and inhibitor concentrations were used. […] Further example methods are described in PCT Patent App. Pub. No. WO 02/46387.
(§5) Off rates (k1 in the scheme below) were derived from exchange rate studies where either the test inhibitor, I, or its exchange partner, J were radiolabelled and the data fit according to the scheme below. As noted in Hawkes et al. (2001) Proc. Bright. Crop. Prot. Conf.
(§6) After 30 minutes the exchange reaction was initiated with addition of 100 μl 1 mM ‘cold’ structure A with thorough mixing, and, immediately, 150 μl were withdrawn and loaded onto a NAP5 column, the protein exchanged into 50 mM BisTrisPropane buffer at pH 7.0 containing 0.1M KCl by rapid (<2 min) chromatography down a NAP5 G25 Sephadex column (GE Healthcare Ltd, Buckinghamshire UK) and the amount of ^14C bound to protein measured by Optiphase scintillant using a Tri-Carb 2900TR scintillation counter (Perkin Elmer, Wellesley, Mass.). Further aliquots were removed and measured in the same way at various times over minutes or hours as required in order to determine the exchange kinetics.
(§7) After 30 minutes the reaction vessel was transferred to ice. After a further 10 minutes at ice temperature the exchange reaction was initiated by addition of 100 μl 1 mM Structure A, with thorough mixing, and 150 μl was withdrawn and loaded onto a NAP5 column in a cold room at ˜5-8° C. in order to quantify the amount of radiolabel remaining bound to the protein at various time from the start of exchange at ice temperature.
(§8) Off rates (k1) of HPPD inhibitors that are not available radiolabelled or that present other measurement problems (for example high levels of background non-specific protein-binding which can be measured as radiolabel binding that persists in the presence of high concentrations of ‘cold’ inhibitor) may be measured indirectly. […] Exemplary methods are also described in PCT Patent App. Pub. No. WO 02/46387.

[3] = target: HPPD SEQ ID NO:14 (Avena sativa, UniProt A0ACD5V6K6, DEL109-109); test: biochemical; assay type: binding; settings: for Kd/Km ratio: HPPD SEQ ID NO:14
Chain of HPPD SEQ ID NO:14 (A0ACD5V6K6 entry or part of it DEL109-109): as the sequence (A0ACD5V6K6 entry or part of it DEL109-109/L359M) above, with M358L counted along it
Protocol: as §3, §4, §5, §6, §7, §8

[4] = system: soybean event 2 (vector 15764) expressing SEQ ID NO:14; test: herbicide spray test on soybean events; assay type: in vivo; settings: event 2/SEQ#14, V2 growth stage, 14 DAT, average of n=7
Description: as §1
(§9) These events were used to compare the performance of five 17147 events. Four of these, SF, S8, S7 and S3 had not been preselected for tolerance level (other than to confirm resistance, non-chimerical nature and the presence of the gene) while the remaining event, T0, had been preselected as the most resistant out of five 17147 events in a preliminary field test.
as §2

[5] = system: soybean event T0 (vector 17147) expressing SEQ ID NO:24; test: herbicide spray test on soybean events; assay type: in vivo; settings: event T0/SEQ#24, V2 growth stage, 14 DAT, average of n=7
Description: as §1, §9, §2

[6] = system: soybean event S3 (vector 17147) expressing SEQ ID NO:24; test: herbicide spray test on soybean events; assay type: in vivo; settings: event S3/SEQ#24, V2 growth stage, 14 DAT, average of n=7
Description: as §1, §9, §2

[7] = system: soybean event SF (vector 17147) expressing SEQ ID NO:24; test: herbicide spray test on soybean events; assay type: in vivo; settings: event SF/SEQ#24, V2 growth stage, 14 DAT, average of n=7
Description: as §1, §9, §2

[8] = system: soybean event 1 (vector 15764) expressing SEQ ID NO:14; test: herbicide spray test on soybean events; assay type: in vivo; settings: event 1/SEQ#14, V2 growth stage, 14 DAT, average of n=7
Description: as §1, §9, §2

[9] = system: soybean event S7 (vector 17147) expressing SEQ ID NO:24; test: herbicide spray test on soybean events; assay type: in vivo; settings: event S7/SEQ#24, V2 growth stage, 14 DAT, average of n=7
Description: as §1, §9, §2

[10] = system: soybean event S8 (vector 17147) expressing SEQ ID NO:24; test: herbicide spray test on soybean events; assay type: in vivo; settings: event S8/SEQ#24, V2 growth stage, 14 DAT, average of n=7
Description: as §1, §9, §2

[11] = target: HPPD SEQ ID NO:23 (Avena sativa, UniProt A0ACD5V6K6, A242W/DEL109-109); test: biochemical; assay type: binding; settings: for koff: read-out: koff (k1)
Chain of HPPD SEQ ID NO:23 (A0ACD5V6K6 entry or part of it DEL109-109/A242W): as the sequence (A0ACD5V6K6 entry or part of it DEL109-109/L359M) above, with A241W, M358L counted along it
Protocol: as §3, §4, §5, §6, §7, §8

[12] = target: HPPD SEQ ID NO:18 (Avena sativa, UniProt A0ACD5V6K6, DEL109-109/I285T); test: biochemical; assay type: binding; settings: for koff: read-out: koff (k1)
Chain of HPPD SEQ ID NO:18 (A0ACD5V6K6 entry or part of it DEL109-109/I285T): as the sequence (A0ACD5V6K6 entry or part of it DEL109-109/L359M) above, with I284T, M358L counted along it
Protocol: as §3, §4, §5, §6, §7, §8

[13] = target: HPPD SEQ ID NO:22 (Avena sativa, UniProt A0ACD5V6K6, DEL109-109/L256M); test: biochemical; assay type: binding; settings: for koff: read-out: koff (k1)
Chain of HPPD SEQ ID NO:22 (A0ACD5V6K6 entry or part of it DEL109-109/L256M): as the sequence (A0ACD5V6K6 entry or part of it DEL109-109/L359M) above, with L255M, M358L counted along it
Protocol: as §3, §4, §5, §6, §7, §8

[14] = target: HPPD SEQ ID NO:21 (Avena sativa, UniProt A0ACD5V6K6, DEL109-109/I285V); test: biochemical; assay type: binding; settings: for koff: read-out: koff (k1)
Chain of HPPD SEQ ID NO:21 (A0ACD5V6K6 entry or part of it DEL109-109/I285V): as the sequence (A0ACD5V6K6 entry or part of it DEL109-109/L359M) above, with I284V, M358L counted along it
Protocol: as §3, §4, §5, §6, §7, §8

[15] = target: HPPD SEQ ID NO:15 (Avena sativa, UniProt A0ACD5V6K6, DEL109-109/Q298A); test: biochemical; assay type: binding; settings: for koff: read-out: koff (k1)
Chain of HPPD SEQ ID NO:15 (A0ACD5V6K6 entry or part of it DEL109-109/Q298A): as the sequence (A0ACD5V6K6 entry or part of it DEL109-109/L359M) above, with Q297A, M358L counted along it
Protocol: as §3, §4, §5, §6, §7, §8

[16] = 25° C., direct, radiochemical method, average and individual experiments, read-out: Off rate k1
[17] = 25° C., direct, radiochemical method, average and individual experiments, read-out: On rate k2
[18] = Kd, HPPD variant SEQ ID# 14, 25° C.
[19] = Kd, estimated from on and off rates, 25° C.

CS(=O)(=O)c1ccc(C(=O)C2C(=O)CCCC2=O)c(Cl)c1COCC(F)(F)F [E, tembotrione]
% dam. ([1]; E 368 g/ha): 84.3% | SEQ ID NO:24 superior to SEQ ID NO:14 (in vitro, in particular off rate data) ([2]; relative to SEQ ID NO:14): neutral | Kd [3]: 0.321 nM | Off rate k1 ([3]; 25° C., indirect radiochemical method, average and individual experiments): 5.5e-05 s⁻¹ and 2.85e-05 s⁻¹ | Kd/Km ratio [3]: 0.000059 | koff ([3]; read-out: Off rate k1, 25° C., indirect radiochemical method, average and individual experiments): 4.17e-05 s⁻¹ | kon ([3]; read-out: On rate k2): 130000 M⁻¹ s⁻¹ | % dam. ([4]; E 368 g/ha): 52.1% | % dam. ([5]; E 368 g/ha): 39.3% | % dam. ([6]; E 368 g/ha): 51.4% | % dam. ([7]; E 368 g/ha): 97.1% | % dam. ([8]; E 368 g/ha): 36.4% | % dam. ([9]; E 368 g/ha): 41.4% | % dam. ([10]; E 368 g/ha): 80%

CS(=O)(=O)c1cc(C(F)(F)F)ccc1C(=O)c1cnoc1C1CC1 [IFT, isoxaflutole]
% dam. ([1]; IFT 420 g/ha): 96.1% | SEQ ID NO:24 superior to SEQ ID NO:14 (in vitro, in particular off rate data) [2]: 2.3 fold | % dam. ([4]; IFT 420 g/ha): 42.5% | % dam. ([5]; IFT 420 g/ha): 19.3% | % dam. ([6]; IFT 420 g/ha): 30% | % dam. ([7]; IFT 420 g/ha): 40% | % dam. ([8]; IFT 420 g/ha): 26.4% | % dam. ([9]; IFT 420 g/ha): 20.7% | % dam. ([10]; IFT 420 g/ha): 31.3%

CCOc1c(S(C)(=O)=O)ccc(C(=O)C2C(=O)CC(C)CC2=O)c1Cl (centres unmarked) [Structure A]
Kd [11]: 0.33 nM | koff [11]: 2.83e-05 s⁻¹ | kon ([11]; read-out: kon (k2)): 85000 M⁻¹ s⁻¹ | Kd [2]: 0.27 nM | koff [2]: 2.3e-05 s⁻¹ | kon [2]: 85000 M⁻¹ s⁻¹ | Kd [12]: 0.4 nM | koff [12]: 1.67e-05 s⁻¹ | kon ([12]; read-out: kon (k2)): 42000 M⁻¹ s⁻¹ | koff [3, 16]: 1.67e-05 s⁻¹ | kon [3, 17]: 85000 M⁻¹ s⁻¹ | Kd/Km ratio [3]: 0.000036 | Kd [3, 18]: 0.2 nM | Kd [3, 19]: 0.196 nM | koff ([3]; read-out: koff (k1)): 1.67e-05 s⁻¹ | kon ([3]; read-out: kon (k2)): 85000 M⁻¹ s⁻¹ | Kd [13]: 0.13 nM | koff [13]: 1.08e-05 s⁻¹ | kon ([13]; read-out: kon (k2)): 85000 M⁻¹ s⁻¹ | Kd [14]: 0.2 nM | koff [14]: 1.67e-05 s⁻¹ | kon ([14]; read-out: kon (k2)): 85000 M⁻¹ s⁻¹ | Kd [15]: 0.95 nM | koff [15]: 3.33e-05 s⁻¹ | kon ([15]; read-out: kon (k2)): 35000 M⁻¹ s⁻¹

CS(=O)(=O)c1cc(C(F)(F)F)ccc1C(=O)C(C#N)C(=O)C1CC1 (centres unmarked) [Structure D]
koff [11]: 2.37e-05 s⁻¹ | Kd [2]: 2.9 nM | koff [2]: 9.18e-05 s⁻¹ | kon [2]: 32000 M⁻¹ s⁻¹ | koff [12]: 3.96e-05 s⁻¹ | Off rate k1 ([3]; 25° C., direct, radiochemical method, average and individual experiments): 4.17e-05 s⁻¹ and 3.75e-05 s⁻¹ | koff [3, 16]: 3.96e-05 s⁻¹ | kon [3, 17]: 32000 M⁻¹ s⁻¹ | kon ([3]; 25° C., enzyme activity-based method, read-out: On rate, activity-based method): 32000 M⁻¹ s⁻¹ | Kd/Km ratio [3]: 0.00023 | Kd [3, 18]: 1.2 nM | Kd [3, 19]: 1.23 nM | koff ([3]; read-out: koff (k1)): 3.96e-05 s⁻¹ | kon ([3]; read-out: kon (k2)): 32000 M⁻¹ s⁻¹ | koff [13]: 2.37e-05 s⁻¹ | koff [14]: 3.96e-05 s⁻¹ | koff [15]: 2.37e-05 s⁻¹
